Source: patent publication US20180353483A1, “PHARMACEUTICAL COMPOSITIONS AND METHODS FOR INDOLEAMINE, 2, 3-DIOXYGENASE INHIBITION AND INDICATIONS THEREFOR” (Incyte Corporation, priority 2015, published 2018)
Read-outs that look alike come from different tables or passages of the source.

Experiment: Pharmacokinetics of Compound 1 in combination with MK-3475 in subjects with various cancers
Format: in vivo, human
Method: The subjects were not limited to a specific cancers and study include subjects with various cancers. […] One treatment cycle consisted of 21 days. […] Additional subjects were enrolled in a cohort to achieve the minimum of 3 evaluable subjects if dropouts or dose interruptions or reductions occur that result in a subject being non-evaluable for DLTs. […] An additional safety cohort was opened at 100 mg BID in parallel to 300 mg BID being tested. This may also be limited to subjects with melanoma, NSCLC, or specific cancer types from among those included in Phase 1. The RP2D was selected from the evaluated safety expansions.
If a dose was missed by more than 4 hours, that dose was skipped and was resumed at the scheduled time.
Pharmacokinetic samples were obtained at the visits of Cycle 1 Day 1, Cycle 1 Day 8 and Cycle 2 Day 1. […] The exact date and time of the PK blood draws were recorded in the eCRF along with the date and time of the last dose of study drug and details of the last meal preceding the blood draw.
The planned PK time points were used for preliminary PK analyses.

[1] = subjects with dose reduction before C4D1, 50 mg BID, C1D8, mean ± SD

SMILES: NS(=O)(=O)NCCNc1nonc1C(=NO)Nc1ccc(F)c(Br)c1 [Compound 1, 4-({2-[(aminosulfonyl)amino]ethyl}amino)-N-(3-bromo-4-fluorophenyl)-N′-hydroxy-1,2,5-oxadiazole-3-carboximidamide]
- AUC(0-t) (human, plasma, oral, 100 mg, Diagnosis DLBCL, first dose, geometric mean, read-out: AUC0-t): 1.9 µM·h
- Cmax (human, plasma, oral, 100 mg, Diagnosis DLBCL, first dose, mean ± SD): 0.732 ± 0.37 µM
- tmax (human, plasma, oral, 100 mg, Diagnosis DLBCL, first dose, median, read-out: tmax): 3 h
- Cmax (human, plasma, oral, 100 mg, Diagnosis GU, first dose, geometric mean): 0.878 µM
- AUC(0-t) (human, plasma, oral, 100 mg, Diagnosis GU, first dose, geometric mean, read-out: AUC0-t): 2.71 µM·h
- Cmax (human, plasma, oral, 100 mg, Diagnosis GU, first dose, mean ± SD): 0.986 ± 0.492 µM
- AUC(0-t) (human, plasma, oral, 100 mg, Diagnosis GU, first dose, mean ± SD, read-out: AUC0-t): 2.96 ± 1.28 µM·h
- AUC(0-t) (human, plasma, oral, 100 mg, Diagnosis MEL, first dose, geometric mean, read-out: AUC0-t): 2.37 µM·h
- Cmax (human, plasma, oral, 100 mg, Diagnosis MEL, first dose, mean ± SD): 0.87 ± 0.347 µM
- AUC(0-t) (human, plasma, oral, 100 mg, Diagnosis MEL, first dose, mean ± SD, read-out: AUC0-t): 2.48 ± 0.773 µM·h
- Cmax (human, plasma, oral, 100 mg, Diagnosis NSCLC PD-L1 High, first dose, geometric mean): 0.878 µM
- AUC(0-t) (human, plasma, oral, 100 mg, Diagnosis NSCLC PD-L1 High, first dose, geometric mean, read-out: AUC0-t): 2.62 µM·h
- Cmax (human, plasma, oral, 100 mg, Diagnosis NSCLC PD-L1 High, first dose, mean ± SD): 1.02 ± 0.573 µM
- AUC(0-t) (human, plasma, oral, 100 mg, Diagnosis NSCLC PD-L1 High, first dose, mean ± SD, read-out: AUC0-t): 2.88 ± 1.3 µM·h
- tmax (human, plasma, oral, 100 mg, Diagnosis NSCLC PD-L1 High, first dose, median, read-out: tmax): 1.5 h
- Cmax (human, plasma, oral, 100 mg, Diagnosis NSCLC PD-L1 Low/NE, first dose, geometric mean): 0.857 µM
- AUC(0-t) (human, plasma, oral, 100 mg, Diagnosis NSCLC PD-L1 Low/NE, first dose, geometric mean, read-out: AUC0-t): 2.66 µM·h
- AUC(0-t) (human, plasma, oral, 100 mg, Diagnosis NSCLC PD-L1 Low/NE, first dose, mean ± SD, read-out: AUC0-t): 2.77 ± 0.839 µM·h
- Cmax (human, plasma, oral, 100 mg, Diagnosis OC, first dose, geometric mean): 0.886 µM
- AUC(0-t) (human, plasma, oral, 100 mg, Diagnosis OC, first dose, geometric mean, read-out: AUC0-t): 2.99 µM·h
- Cmax (human, plasma, oral, 100 mg, Diagnosis OC, first dose, mean ± SD): 0.967 ± 0.405 µM
- AUC(0-t) (human, plasma, oral, 100 mg, Diagnosis OC, first dose, mean ± SD, read-out: AUC0-t): 3.16 ± 1.1 µM·h
- tmax (human, plasma, oral, 100 mg, Diagnosis RCC, first dose, individual values of 2 subjects, read-out: tmax): 3 h
- Cmax (human, plasma, oral, 100 mg, Diagnosis SCCHN, first dose, geometric mean): 0.649 µM
- AUC(0-t) (human, plasma, oral, 100 mg, Diagnosis SCCHN, first dose, geometric mean, read-out: AUC0-t): 2.06 µM·h
- Cmax (human, plasma, oral, 100 mg, Diagnosis SCCHN, first dose, mean ± SD): 0.769 ± 0.439 µM
- Cmax (human, plasma, oral, 100 mg, Diagnosis TNBC, first dose, geometric mean): 0.898 µM
- AUC(0-t) (human, plasma, oral, 100 mg, Diagnosis TNBC, first dose, geometric mean, read-out: AUC0-t): 2.82 µM·h
- Cmax (human, plasma, oral, 100 mg, Diagnosis TNBC, first dose, mean ± SD): 1.03 ± 0.574 µM
- AUC(0-t) (human, plasma, oral, 100 mg, Diagnosis TNBC, first dose, mean ± SD, read-out: AUC0-t): 3.08 ± 1.39 µM·h
- AUC(0-t) (human, plasma, oral, 100 mg, by dose, 100 mg BID, steady state C1D8, geometric mean, read-out: AUC0-12 h (converted)): 3.57 µM·h
- AUC(0-t) (human, plasma, oral, 100 mg, by dose, 100 mg BID, steady state C1D8, mean ± SD, read-out: AUC0-12 h (converted)): 3.82 ± 1.37 µM·h
- AUC(0-t) (human, plasma, oral, 100 mg, by dose, 100 mg, first dose, mean ± SD, read-out: AUC0-t): 2.47 ± 0.861 µM·h
- AUC(0-t) (human, plasma, oral, 300 mg, Cohort 6, 300 mg BID, steady state C1D8, geometric mean, read-out: AUC0-12 h (converted)): 11.3 µM·h
- AUC(0-t) (human, plasma, oral, 300 mg, Cohort 6, 300 mg BID, steady state C1D8, mean ± SD, read-out: AUC0-12 h (converted)): 12.3 ± 6.09 µM·h
- Cmax (human, plasma, oral, 300 mg, Cohort 6, 300 mg, first dose, geometric mean): 1.79 µM
- AUC(0-t) (human, plasma, oral, 300 mg, Cohort 6, 300 mg, first dose, geometric mean, read-out: AUC0-t): 6.92 µM·h
- Cmax (human, plasma, oral, 300 mg, Cohort 6, 300 mg, first dose, mean ± SD): 2.22 ± 1.72 µM
- AUC(0-t) (human, plasma, oral, 300 mg, Cohort 6, 300 mg, first dose, mean ± SD, read-out: AUC0-t): 7.47 ± 3.32 µM·h
- AUC(0-t) (human, plasma, oral, 300 mg, Cohort 7, 300 mg BID, steady state C1D8, geometric mean, read-out: AUC0-12 h (converted)): 11.3 µM·h
- Cmax (human, plasma, oral, 300 mg, Cohort 7, 300 mg BID, steady state C1D8, mean ± SD): 2.75 ± 1.22 µM
- AUC(0-t) (human, plasma, oral, 300 mg, Cohort 7, 300 mg BID, steady state C1D8, mean ± SD, read-out: AUC0-12 h (converted)): 12.2 ± 5.92 µM·h
- Cmax (human, plasma, oral, 300 mg, Cohort 7, 300 mg, first dose, geometric mean): 2.17 µM
- AUC(0-t) (human, plasma, oral, 300 mg, Cohort 7, 300 mg, first dose, geometric mean, read-out: AUC0-t): 6.88 µM·h
- Cmax (human, plasma, oral, 300 mg, Cohort 7, 300 mg, first dose, mean ± SD): 2.33 ± 0.925 µM
- AUC(0-t) (human, plasma, oral, 300 mg, Cohort 7, 300 mg, first dose, mean ± SD, read-out: AUC0-t): 7.38 ± 2.86 µM·h
- AUC(0-t) (human, plasma, oral, 300 mg, by dose, 300 mg BID, steady state C1D8, geometric mean, read-out: AUC0-12 h (converted)): 11.3 µM·h
- Cmax (human, plasma, oral, 300 mg, by dose, 300 mg BID, steady state C1D8, mean ± SD): 2.74 ± 1.19 µM
- AUC(0-t) (human, plasma, oral, 300 mg, by dose, 300 mg BID, steady state C1D8, mean ± SD, read-out: AUC0-12 h (converted)): 12.3 ± 5.81 µM·h
- AUC(0-t) (human, plasma, oral, 300 mg, by dose, 300 mg, first dose, geometric mean, read-out: AUC0-t): 6.89 µM·h
- AUC(0-t) (human, plasma, oral, 300 mg, by dose, 300 mg, first dose, mean ± SD, read-out: AUC0-t): 7.41 ± 2.95 µM·h
- Cmax (human, plasma, oral, 300 mg, subjects with dose reduction before C4D1, 300 mg BID, C1D8, geometric mean): 3 µM
- AUC(0-t) (human, plasma, oral, 300 mg, subjects with dose reduction before C4D1, 300 mg BID, C1D8, geometric mean, read-out: AUC0-12 h (converted)): 13.3 µM·h
- Cmax (human, plasma, oral, 300 mg, subjects with dose reduction before C4D1, 300 mg BID, C1D8, mean ± SD): 3.18 ± 1.28 µM
- AUC(0-t) (human, plasma, oral, 300 mg, subjects with dose reduction before C4D1, 300 mg BID, C1D8, mean ± SD, read-out: AUC0-12 h (converted)): 14.6 ± 7.4 µM·h
- dose proportionality of exposures (non-compartmental analysis): approximate dose-proportional exposures
- AUC0-12 h (subjects with dose reduction before C4D1, 50 mg BID, C1D8, geometric mean): (2.29) μM * h
- AUC0-12 h [1]: 2.41 ± 0.980 µM·h
- CL/F [1]: 52.0 ± 17.1 L/h
- tmax (subjects with dose reduction before C4D1, 50 mg BID, C1D8, median): 2.00 h
- CL/F (subjects with dose reduction before C4D1, 300 mg BID, C1D8, mean ± SD): 55.4 ± 23.0 L/h
- tmax (subjects with dose reduction before C4D1, 300 mg BID, C1D8, median): 2.00 h
